According to ChEMBL document CHEMBL1909590, “Design, synthesis and docking studies of new quinoline-3-carbohydrazide derivatives as antitubercular agents” (2011):
≈ marks a conversion by molar mass, not a printed value.

Experiments:
Assay type in all cases: functional
[1] = tested on: Mycolicibacterium smegmatis; assay: Antimycobacterial activity against Mycobacterium smegmatis MC2 ATCC 19420 using compound level ranging from 0.3125 to 5 ug/mL after 7 days by resazurin reduction test; conditions: MC2 ATCC 19420, 168 h
Staphylococcus aureus = assay: Antibacterial activity against Staphylococcus aureus ATCC 25923 after 18 to 25 hrs by serial plate dilution method
Streptococcus pyogenes = assay: Antibacterial activity against Streptococcus pyogenes clinical isolate after 18 to 25 hrs by serial plate dilution method
[2] = tested on: Mycobacterium tuberculosis; assay: Antimycobacterial activity against Mycobacterium tuberculosis H37Rv ATCC 27294 using compound level ranging from 0.3125 to 5 ug/mL after 7 days by resazurin reduction test; conditions: H37Rv ATCC 27294, 168 h
[3] = tested on: Mycolicibacterium fortuitum; assay: Antimycobacterial activity against Mycobacterium fortuitum ATCC 19542 using compound level ranging from 1 to 100 ug/mL after 7 days by resazurin reduction test; conditions: ATCC 19542, 168 h
[4] = tested on: Mycobacterium tuberculosis; assay: Antimycobacterial activity against Mycobacterium tuberculosis H37Rv ATCC 27294 using compound level ranging from 1 to 100 ug/mL after 7 days by resazurin reduction test; conditions: H37Rv ATCC 27294, 168 h
[5] = tested on: Mycobacterium tuberculosis; assay: Growth inhibition of Mycobacterium tuberculosis H37Rv ATCC 27294 using compound level ranging from 1 to 100 ug/mL after 7 days by resazurin reduction test
Pseudomonas aeruginosa = assay: Antibacterial activity against Pseudomonas aeruginosa ATCC 27853 after 18 to 25 hrs by serial plate dilution method
[6] = tested on: Mycolicibacterium smegmatis; assay: Antimycobacterial activity against Mycobacterium smegmatis MC2 ATCC 19420 using compound level ranging from 1 to 100 ug/mL after 7 days by resazurin reduction test; conditions: MC2 ATCC 19420, 168 h
Klebsiella pneumoniae = assay: Antibacterial activity against Klebsiella pneumoniae clinical isolates after 18 to 25 hrs by serial plate dilution method
[7] = tested on: Mycolicibacterium fortuitum; assay: Antimycobacterial activity against Mycobacterium fortuitum ATCC 19542 using compound level ranging from 0.3125 to 5 ug/mL after 7 days by resazurin reduction test; conditions: ATCC 19542, 168 h
Escherichia coli = assay: Antibacterial activity against Escherichia coli ATCC 25922 after 18 to 25 hrs by serial plate dilution method

Structure (SMILES)	MIC [1] [mg/L]	MIC (Staphylococcus aureus) [mg/L]	MIC (Streptococcus pyogenes) [mg/L]	MIC [2] [mg/L]	MIC [3] [mg/L]	MIC [4] [mg/L]	growth inhibition (GI) [5] [%]	MIC (Pseudomonas aeruginosa) [mg/L]	MIC [6] [mg/L]	MIC (Klebsiella pneumoniae) [mg/L]	MIC [7] [mg/L]	MIC (Escherichia coli) [mg/L]
Cn1cccc1/C=N\NC(=O)c1cnc2c(C(F)(F)F)cccc2c1O	1.25 (≈ 3.45 µM)	0.8 (≈ 2.21 µM)	0.4 (≈ 1.1 µM)	0.625 (≈ 1.73 µM)	10 (≈ 27.6 µM)	1 (≈ 2.76 µM)	90	0.4 (≈ 1.1 µM)	1 (≈ 2.76 µM)	0.1 (≈ 0.276 µM)	10 (≈ 27.6 µM)	0.1 (≈ 0.276 µM)
O=C(N/N=C/c1cnc[nH]1)c1cnc2c(C(F)(F)F)cccc2c1O	–	0.8 (≈ 2.29 µM)	0.4 (≈ 1.15 µM)	1.25 (≈ 3.58 µM)	10 (≈ 28.6 µM)	1 (≈ 2.86 µM)	90	0.8 (≈ 2.29 µM)	> 1000	0.4 (≈ 1.15 µM)	10 (≈ 28.6 µM)	0.2 (≈ 0.573 µM)
COc1ccc(/C=N/NC(=O)c2cnc3c(C(F)(F)F)cccc3c2O)cc1O	–	1.6 (≈ 3.95 µM)	1.6 (≈ 3.95 µM)	10 (≈ 24.7 µM)	> 100	10 (≈ 24.7 µM)	<90	6.25 (≈ 15.4 µM)	> 100	12.5 (≈ 30.8 µM)	–	12.5 (≈ 30.8 µM)
Cc1ccc(NC(=S)NNC(=O)c2cnc3c(C(F)(F)F)cccc3c2O)cc1	–	1.6 (≈ 3.81 µM)	3.12 (≈ 7.42 µM)	–	> 100	> 100	0	6.25 (≈ 14.9 µM)	> 100	12.5 (≈ 29.7 µM)	–	12.5 (≈ 29.7 µM)
Cc1ccc(NC(=O)NNC(=O)c2cnc3c(C(F)(F)F)cccc3c2O)cc1	10 (≈ 24.7 µM)	0.8 (≈ 1.98 µM)	0.4 (≈ 0.989 µM)	1.25 (≈ 3.09 µM)	10 (≈ 24.7 µM)	1 (≈ 2.47 µM)	90	0.8 (≈ 1.98 µM)	10 (≈ 24.7 µM)	0.1 (≈ 0.247 µM)	10 (≈ 24.7 µM)	0.2 (≈ 0.495 µM)
O=C(NNC(=S)Nc1cccnc1)c1cnc2c(C(F)(F)F)cccc2c1O	–	6.25 (≈ 15.3 µM)	12.5 (≈ 30.7 µM)	–	> 100	> 100	0	12.5 (≈ 30.7 µM)	> 100	6.25 (≈ 15.3 µM)	–	3.12 (≈ 7.66 µM)
CSc1ccccc1/C=N/NC(=O)c1cnc2c(C(F)(F)F)cccc2c1O	–	1.6 (≈ 3.95 µM)	3.12 (≈ 7.7 µM)	–	> 100	> 100	0	3.12 (≈ 7.7 µM)	> 100	3.12 (≈ 7.7 µM)	–	6.25 (≈ 15.4 µM)
Cc1cc(C)cc(NC(=O)NNC(=O)c2cnc3c(C(F)(F)F)cccc3c2O)c1	–	0.8 (≈ 1.91 µM)	1.6 (≈ 3.82 µM)	2.5 (≈ 5.98 µM)	> 100	10 (≈ 23.9 µM)	<90	3.12 (≈ 7.46 µM)	> 100	3.12 (≈ 7.46 µM)	–	3.12 (≈ 7.46 µM)
COC(=O)Cc1cc(/C=N/NC(=O)c2cnc3c(C(F)(F)F)cccc3c2O)co1	–	6.25 (≈ 14.8 µM)	12.5 (≈ 29.7 µM)	5 (≈ 11.9 µM)	> 100	10 (≈ 23.7 µM)	<90	12.5 (≈ 29.7 µM)	> 100	6.25 (≈ 14.8 µM)	–	3.12 (≈ 7.41 µM)
NNC(=O)c1ccncc1 [ISONIAZID]	50 (≈ 365 µM)	–	–	0.7 (≈ 5.1 µM)	12.5 (≈ 91.1 µM)	0.7 (≈ 5.1 µM)	95	–	50 (≈ 365 µM)	–	12.5 (≈ 91.1 µM)	–
COc1ccc(/C=N/NC(=O)c2cnc3c(C(F)(F)F)cccc3c2O)c(F)c1	10 (≈ 24.6 µM)	0.8 (≈ 1.96 µM)	0.4 (≈ 0.982 µM)	0.625 (≈ 1.53 µM)	10 (≈ 24.6 µM)	1 (≈ 2.46 µM)	95	0.4 (≈ 0.982 µM)	10 (≈ 24.6 µM)	0.1 (≈ 0.246 µM)	10 (≈ 24.6 µM)	0.1 (≈ 0.246 µM)
O=C(NNC(=O)c1cnc2c(C(F)(F)F)cccc2c1O)Nc1cccc(Cl)c1	–	0.8 (≈ 1.88 µM)	0.4 (≈ 0.942 µM)	10 (≈ 23.5 µM)	> 100	10 (≈ 23.5 µM)	<90	1.6 (≈ 3.77 µM)	> 100	0.8 (≈ 1.88 µM)	–	3.12 (≈ 7.35 µM)
Cn1nnc2cc(/C=N\NC(=O)c3cnc4c(C(F)(F)F)cccc4c3O)ccc21	–	0.8 (≈ 1.93 µM)	0.4 (≈ 0.965 µM)	5 (≈ 12.1 µM)	> 100	10 (≈ 24.1 µM)	<90	1.6 (≈ 3.86 µM)	> 100	0.8 (≈ 1.93 µM)	–	0.4 (≈ 0.965 µM)
COc1ccc2[nH]cc(/C=N/NC(=O)c3cnc4c(C(F)(F)F)cccc4c3O)c2c1	10 (≈ 23.3 µM)	0.8 (≈ 1.87 µM)	0.4 (≈ 0.934 µM)	0.625 (≈ 1.46 µM)	10 (≈ 23.3 µM)	1 (≈ 2.33 µM)	95	0.4 (≈ 0.934 µM)	10 (≈ 23.3 µM)	0.1 (≈ 0.233 µM)	10 (≈ 23.3 µM)	0.1 (≈ 0.233 µM)
O=C(N/N=C/c1ccncc1)c1cnc2c(C(F)(F)F)cccc2c1O	–	6.25 (≈ 17.3 µM)	12.5 (≈ 34.7 µM)	–	> 100	> 100	0	12.5 (≈ 34.7 µM)	> 100	6.25 (≈ 17.3 µM)	–	12.5 (≈ 34.7 µM)
O=C(N/N=C/c1cc(F)ccc1O)c1cnc2c(C(F)(F)F)cccc2c1O	10 (≈ 25.4 µM)	0.8 (≈ 2.03 µM)	0.8 (≈ 2.03 µM)	2.5 (≈ 6.36 µM)	10 (≈ 25.4 µM)	10 (≈ 25.4 µM)	<90	0.4 (≈ 1.02 µM)	10 (≈ 25.4 µM)	0.1 (≈ 0.254 µM)	10 (≈ 25.4 µM)	0.1 (≈ 0.254 µM)
CCc1ccc(NC(=O)NNC(=O)c2cnc3c(C(F)(F)F)cccc3c2O)cc1	–	6.25 (≈ 14.9 µM)	12.5 (≈ 29.9 µM)	12.5 (≈ 29.9 µM)	> 100	10 (≈ 23.9 µM)	<90	12.5 (≈ 29.9 µM)	> 100	6.25 (≈ 14.9 µM)	–	3.12 (≈ 7.46 µM)
Cc1cccc2c(/C=N/NC(=O)c3cnc4c(C(F)(F)F)cccc4c3O)c[nH]c12	1.25 (≈ 3.03 µM)	0.8 (≈ 1.94 µM)	0.4 (≈ 0.97 µM)	0.625 (≈ 1.52 µM)	10 (≈ 24.3 µM)	1 (≈ 2.43 µM)	95	0.4 (≈ 0.97 µM)	1 (≈ 2.43 µM)	0.1 (≈ 0.243 µM)	10 (≈ 24.3 µM)	0.1 (≈ 0.243 µM)
O=C(NNC(=S)Nc1cccc(Cl)c1)c1cnc2c(C(F)(F)F)cccc2c1O	2.5 (≈ 5.67 µM)	0.8 (≈ 1.81 µM)	1.6 (≈ 3.63 µM)	2.5 (≈ 5.67 µM)	> 100	10 (≈ 22.7 µM)	<90	3.12 (≈ 7.08 µM)	10 (≈ 22.7 µM)	3.12 (≈ 7.08 µM)	–	3.12 (≈ 7.08 µM)
O=C(NNC(=S)Nc1ccccc1F)c1cnc2c(C(F)(F)F)cccc2c1O	10 (≈ 23.6 µM)	0.8 (≈ 1.89 µM)	0.4 (≈ 0.943 µM)	0.625 (≈ 1.47 µM)	10 (≈ 23.6 µM)	1 (≈ 2.36 µM)	95	0.4 (≈ 0.943 µM)	10 (≈ 23.6 µM)	0.1 (≈ 0.236 µM)	10 (≈ 23.6 µM)	0.1 (≈ 0.236 µM)
Cc1[nH]cnc1/C=N/NC(=O)c1cnc2c(C(F)(F)F)cccc2c1O	1.25 (≈ 3.44 µM)	0.8 (≈ 2.2 µM)	1.6 (≈ 4.4 µM)	1.25 (≈ 3.44 µM)	10 (≈ 27.5 µM)	1 (≈ 2.75 µM)	90	0.4 (≈ 1.1 µM)	1 (≈ 2.75 µM)	0.1 (≈ 0.275 µM)	12.5 (≈ 34.4 µM)	0.4 (≈ 1.1 µM)
Cc1ccc(/C=N/NC(=O)c2cnc3c(C(F)(F)F)cccc3c2O)cc1	–	1.6 (≈ 4.29 µM)	3.12 (≈ 8.36 µM)	10 (≈ 26.8 µM)	> 100	10 (≈ 26.8 µM)	<90	3.12 (≈ 8.36 µM)	> 100	0.8 (≈ 2.14 µM)	–	3.12 (≈ 8.36 µM)
COc1ccc(NC(=S)NNC(=O)c2cnc3c(C(F)(F)F)cccc3c2O)cc1	–	1.6 (≈ 3.67 µM)	0.8 (≈ 1.83 µM)	5 (≈ 11.5 µM)	> 100	10 (≈ 22.9 µM)	<90	1.6 (≈ 3.67 µM)	> 100	3.12 (≈ 7.15 µM)	–	6.25 (≈ 14.3 µM)
O=C(N/N=C/c1ccc2c(c1)CCO2)c1cnc2c(C(F)(F)F)cccc2c1O	–	1.6 (≈ 3.99 µM)	3.12 (≈ 7.77 µM)	–	> 100	> 100	0	3.12 (≈ 7.77 µM)	> 100	6.25 (≈ 15.6 µM)	–	12.5 (≈ 31.1 µM)
O=C(O)c1cn(C2CC2)c2cc(N3CCNCC3)c(F)cc2c1=O [CIPROFLOXACIN]	–	1 (≈ 3.02 µM)	–	–	–	–	–	0.4 (≈ 1.21 µM)	–	–	–	–
O=C(N/N=C/c1ccc(OC(F)(F)C(F)F)cc1)c1cnc2c(C(F)(F)F)cccc2c1O	10 (≈ 21 µM)	3.12 (≈ 6.56 µM)	12.5 (≈ 26.3 µM)	5 (≈ 10.5 µM)	> 100	10 (≈ 21 µM)	<90	6.25 (≈ 13.1 µM)	10 (≈ 21 µM)	3.12 (≈ 6.56 µM)	–	6.25 (≈ 13.1 µM)
CO[C@H]1/C=C/O[C@@]2(C)Oc3c(C)c(O)c4c(O)c(c(/C=N/N5CCN(C)CC5)c(O)c4c3C2=O)NC(=O)/C(C)=C\C=C\[C@H](C)[C@H](O)[C@@H](C)[C@@H](O)[C@@H](C)[C@H](OC(C)=O)[C@@H]1C [RIFAMPIN]	1.5 (≈ 1.82 µM)	–	–	0.5 (≈ 0.608 µM)	1.5 (≈ 1.82 µM)	0.5 (≈ 0.608 µM)	95	–	1.5 (≈ 1.82 µM)	–	1.5 (≈ 1.82 µM)	–
